The values that follow come from patent publication US10093973B2, “Polymerase compositions and methods” (LIFE TECHNOLOGIES CORPORATION, priority 2009, dated 2018).

In assay [1] the test system is AF647-C6-dG6P and Alexa Fluor 546 dye-labeled primer-template duplex. Kind of assay: Stopped-flow measurement of tpol (nucleotide incorporation kinetics). The note with it: tpol = 1/kpol; 7 μM AF647-C6-dG6P, 330 nM polymerase, 100 nM template/primer duplex, 2 mM MnCl2. It counts as biochemical. Also noted: unit not given here. The method, then: In this example, the t−1 and tpol values of a Phi-29 polymerase comprising the amino acid sequence of SEQ ID NO: 1 and a modified B103 polymerase comprising the amino acid sequence of SEQ ID NO: 8 (referred to as “mB103 in the table below) and further including amino acid substitutions at various positions were measured using a stopped-flow procedure. The stopped-flow techniques for measuring tpol (1/kpol) followed the techniques described by MP Roettger (2008 Biochemistry 47:9718-9727; M. Bakhtina 2009 Biochemistry 48:3197-320).
Stopped-Flow Measurements of tpol
The template sequence (SEQ ID NO: 44) further included an Alexa Fluor 546 dye moiety bonded to the 5′ position of the template.
The kinetics of nucleotide incorporation by each polymerase was measured in an Applied Photophysics SX20 stopped-flow spectrometer by monitoring changes in fluorescence from the dye-labeled primer-template duplex complexed to enzyme, following the mixing of the enzyme-DNA complex with dye-labeled nucleotides. These dye-labeled nucleotides comprise terminal-phosphate-labeled nucleotides having an alkyl linker with a functional amine group attached to the dye, and have the general structure shown in FIG. 11. This structure includes a sugar bonded to a hexaphosphate chain at the 5′ carbon position, and to a nucleotide base (denoted as “N”). The terminal phosphate group of the hexaphosphate is linked to a 6-carbon linker, and the other end of the 6-carbon linker is attached to a dye moiety (denoted as “dye”), typically through an amide bond. In this example, the particular dye-labeled nucleotide added was a labeled nucleotide hexaphosphate comprising a guanine base at the N (base) position and an Alexa Fluor 647 (AF647) at the dye position, and is referred to herein as “AF647-C6-dG6P”.
The primer and template were annealed to form a dye-labeled primer-template duplex using standard methods. This duplex was preincubated with polymerase. The mixture included 330 nM recombinant DNA polymerase, 100 nM template/primer duplex in buffer (“reaction buffer”) comprising 50 mM Tris-HCl, pH 7.5, 50 mM NaCl, 4 mM DTT, 0.2% BSA, and 2 mM MnCl2. The dye-labeled nucleotide AF647-C6-dG6P was then added to a final concentration of 7 μM, and the resulting fluorescence was monitored over time.
The averaged (5 traces) stopped-flow fluorescence traces (>1.5 ms) were fitted with a double exponential equation (1) to extrapolate the rates of the nucleotide binding and product release, Fluorescence=A1*e^−k1*t+A2*e^−kpol*t+C (equation 1) where A1 and A2 represent corresponding fluorescence amplitudes, C is an offset constant, and k1 and kpol are the observed rate constants for the fast and slow phases of the fluorescence transition, respectively.

In assay [2] the test system is ωdN4P and non-extendible AF546 primer:template duplex. Kind of assay: Stopped-flow t−1 measurement of Example 7. It counts as biochemical. Particulars: modified versus reference polymerase, ωdN4P 14 μM. How it is done:
In this example, the t−1 values of an exemplary modified polymerase comprising the amino acid of SEQ ID NO: 8 and an exemplary reference polymerase comprising the amino acid sequence of SEQ ID NO: 20 were measured and compared. These kinetic parameters were evaluated using an assay system wherein mixtures comprising a test polymerase and a primer:template duplex were mixed in a stopped-flow assay with nucleotides. To measure t−1, the primer used to form the primer:template duplex was a non-extendible primer including a dideoxynucleotide at its 3′ end, and the template was a synthetic DNA template comprising a donor Alexa Fluor 546 moiety at its 5′ end. […] The ternary complex was mixed with unlabeled nucleotides in a stopped-flow experiment, and the resulting fluorescence was monitored as described below. […]
Preincubated mixtures comprising 200 nM of a primer:templex duplex, 660 nM of test polymerase, and 14 μM of ωdN4P were prepared and then mixed with a solution comprising the unlabeled cognate nucleotide (50 μM) in a stopped-flow apparatus. The fluorescence at both 546 nm and 647 nm was monitored following mixing. The averaged stopped-flow fluorescence traces were fitted with a single exponential function having the form of Equation (1) to extrapolate the t−1 value of the test polymerase.

Numbering of substitutions follows the chain as printed.

Substance “mB103 (SEQ ID: 8): B103 polymerase triple mutant with D166A, F383L and D384N” yielded a tpol in assay [1] of 14. The “estimated t−1 values” in assay [2] is recorded as “comparable”.
